What was measured:
[1] = test system: potassium canal (isolated arteria mesenterica anterior); assay: Potassium canal binding ("bandage") and selectivity on isolated arteria mesenterica anterior of rabbits; settings: isolated rabbit mesenteric artery; KCl vs adrenaline contraction, TEA medium
Procedure: 1. […] Rabbits of both sexes weighing 2000-2500 g were anesthetized by a hit at the nape, the abdominal wall was cut open and the arteria mesenterica anterior was mounted after exsanguination. The artery was put into a Krebs solution of a temperature of 37° C. infiltrated with carbogene while removing the interstitial residues. Then a 2 mm wide spiral is cut from the artery and this artery stripe is prestretched in an organ pot in Krebs solution of a temperature of 37° C., infiltrated with carbogene, by a stretching of 0.5 g. In the experiment Hugo Basile type dynamometer heads, Hugo Basile type amplifiers and Perkin Elmer type potentiometer have been used for amplifying and fixing the signs. Two parallel organs were used for the qualitative tests. One of them was contracted by adding 30 mmoles of KCl after an incubation time of 1 hour, the other one by 5 μmoles of adrenaline. Then the arteries were relaxed by the cumulative addition of the substance to be examined. The system was washed with a Krebs solution containing 30 mmoles of tetraethyl ammonium bromide (TEA) and the organs were incubated for 30 minutes in a TEA-containing medium. After incubation the organs were again contracted with potassium and noradrenaline and a dilatation was induced by using the substance to be examined. In a quantitative test organs contracted with 5 μmoles of noradrenaline were relaxed with the substance to be examined and the dose inducing a 50% dilatation was determined.

normotensive rats = assay: Decrease of blood pressure on normotensive rats measured by average arterial tension; type: in vivo, Wistar rats; set-up: Pulse: unit not given beside the values; Average arterial tension / Decrease (of average arterial tension): unit not given here
Procedure: 2. Decrease of blood pressure on normotensive rats measured by average arterial tension
Wistar rats of both sexes weighing 230-260 g were used in the experiments. The rats were narcotised by 40 mg/kg of pentobarbital. The trachea was mounted and a polyethylene canula was introduced into the trachea, vena jugularis sinester and to the arteria carotis communis sinester. The substances to be examined were introduced into the organism of the animal through the duodenum. The pulsatory, systolic and diastolic blood pressure and the pulse were continuously measured by using a Statham type tensiometer head and haemodynamic measuring system produced by the Hungarian firm Experimetria Kft. After the blood pressure has become stable 0.75 μg of adrenaline were administered intravenously to measure the effect of alpha-adrenergic receptors on the blood pressure. After the hypertension has ceased 0.1 μg/kg of isoproterenole is added in order to characterize the activity of the β-adrenerg receptors. After tachycardia has ceased the test compound was administered i.d. and the treatment with the receptor stimulants was repeated after an hour in order to characterize the effect of the test compound on adrenergic receptor subclasses.
Change of the blood pressure on normotensive rats measured on six test animals

[2] = 1 mg/kg i.d., time 0 min (baseline)
[3] = 5 mg/kg i.d., time 0 min (baseline)
[4] = 10 mg/kg i.d., time 0 min (baseline)

Row | Mechanism of effect [1] | Selectivity [1] | Compound | Average arterial tension (normotensive rats; [2]) | Pulse (normotensive rats; [2]) | Average arterial tension (normotensive rats; 1 mg/kg i.d., time 1 min) | Decrease (of average arterial tension) (normotensive rats; 1 mg/kg i.d., time 1 min) | Pulse (normotensive rats; 1 mg/kg i.d., time 1 min) | Average arterial tension (normotensive rats; 1 mg/kg i.d., time 10 min) | Decrease (of average arterial tension) (normotensive rats; 1 mg/kg i.d., time 10 min) | Pulse (normotensive rats; 1 mg/kg i.d., time 10 min) | Average arterial tension (normotensive rats; 1 mg/kg i.d., time 30 min) | Decrease (of average arterial tension) (normotensive rats; 1 mg/kg i.d., time 30 min) | Pulse (normotensive rats; 1 mg/kg i.d., time 30 min) | Average arterial tension (normotensive rats; 1 mg/kg i.d., time 60 min) | Decrease (of average arterial tension) (normotensive rats; 1 mg/kg i.d., time 60 min) | Pulse (normotensive rats; 1 mg/kg i.d., time 60 min) | further results
1 | Potassium canal activator | selective | COc1cc2c(cc1OC)[C@@H](N1CCCC1=O)[C@H](O)C(C)(C)O2 (racemic) [Example 1, (+/-)-6,7-dimethoxy-3,4-dihydro-2,2-dimethyl-trans-4-(2-oxo-1-pyrrolidinyl)-2H-benzo(b)pyran-3-ol] | 107 ± 11 | 394 ± 27 | 56 ± 6 | -51 | 403 ± 34 | 56 ± 6 | -51 | 400 ± 31 | 49 ± 4 | -45 | 400 ± 31 | 71 ± 20 | -36 | 382 ± 31 | –
2 | Potassium canal activator | selective | COc1cc2c(cc1Cl)[C@@H](N1CCCC1=O)[C@H](O)C(C)(C)O2 (racemic) [Example 10, (+/-)-6-chloro-7-methoxy-3,4-dihydro-2,2-dimethyl-trans-4-(2-oxo-1-pyrrolidinyl)-2H-benzo (b) pyran-3-ol] | – | – | – | – | – | – | – | – | – | – | – | – | – | – | Average arterial tension (normotensive rats; [3]): 108 ± 15; Pulse (normotensive rats; [3]): 402 ± 4; Average arterial tension (normotensive rats; 5 mg/kg i.d., time 1 min): 62 ± 3; Decrease (of average arterial tension) (normotensive rats; 5 mg/kg i.d., time 1 min): -46; Pulse (normotensive rats; 5 mg/kg i.d., time 1 min): 418 ± 18; Average arterial tension (normotensive rats; 5 mg/kg i.d., time 10 min): 68 ± 6; Decrease (of average arterial tension) (normotensive rats; 5 mg/kg i.d., time 10 min): -40; Pulse (normotensive rats; 5 mg/kg i.d., time 10 min): 436 ± 18; Average arterial tension (normotensive rats; 5 mg/kg i.d., time 30 min): 96 ± 15; Decrease (of average arterial tension) (normotensive rats; 5 mg/kg i.d., time 30 min): -12; Pulse (normotensive rats; 5 mg/kg i.d., time 30 min): 424 ± 10; Average arterial tension (normotensive rats; 5 mg/kg i.d., time 60 min): 109 ± 26; Decrease (of average arterial tension) (normotensive rats; 5 mg/kg i.d., time 60 min): +1; Pulse (normotensive rats; 5 mg/kg i.d., time 60 min): 396 ± 13
3 | Potassium canal activator | selective | COc1cc2c(cc1C#N)[C@@H](N1CCCC1=O)[C@H](O)C(C)(C)O2 (racemic) [Example 15, (+/-)-6-cyano-7-methoxy-3,4-dihydro-2,2-dimethyl-trans-4-(2-oxo-1-pyrrolidinyl)-2H-benzo (b) pyran-3-ol] | 125 ± 13 | 412 ± 45 | 92 ± 10 | -33 | 439 ± 42 | 103 ± 5 | -22 | 430 ± 45 | 118 ± 15 | -7 | 430 ± 45 | 122 ± 10 | -3 | 412 ± 37 | –
4 | Potassium canal activator | selective | COc1cc2c(cc1Br)[C@@H](N1CCCC1=O)[C@H](O)C(C)(C)O2 (relative stereo) [Example 9, (+/-) 16-bromo-7-methoxy-3,4-dihydro-2,2-dimethyl-trans-4-(2-oxo-1-pyrrolidinyl)-2H-benzo (b) pyran-3-ol] | – | – | – | – | – | – | – | – | – | – | – | – | – | – | Average arterial tension (normotensive rats; [4]): 117 ± 19; Pulse (normotensive rats; [4]): 406 ± 51; Average arterial tension (normotensive rats; 10 mg/kg i.d., time 1 min): 119 ± 16; Decrease (of average arterial tension) (normotensive rats; 10 mg/kg i.d., time 1 min): +2; Pulse (normotensive rats; 10 mg/kg i.d., time 1 min): 406 ± 51; Average arterial tension (normotensive rats; 10 mg/kg i.d., time 10 min): 58 ± 5; Decrease (of average arterial tension) (normotensive rats; 10 mg/kg i.d., time 10 min): -59; Pulse (normotensive rats; 10 mg/kg i.d., time 10 min): 436 ± 62; Average arterial tension (normotensive rats; 10 mg/kg i.d., time 30 min): 65 ± 15; Decrease (of average arterial tension) (normotensive rats; 10 mg/kg i.d., time 30 min): -52; Pulse (normotensive rats; 10 mg/kg i.d., time 30 min): 430 ± 63; Average arterial tension (normotensive rats; 10 mg/kg i.d., time 60 min): 87 ± 18; Decrease (of average arterial tension) (normotensive rats; 10 mg/kg i.d., time 60 min): -30; Pulse (normotensive rats; 10 mg/kg i.d., time 60 min): 430 ± 63
5 | Potassium canal activator | selective | COc1cc2c(cc1[N+](=O)[O-])[C@@H](N1CCCC1=O)[C@H](O)C(C)(C)O2 (relative stereo) [Example 11] | 121 ± 21 | 388 ± 10 | 115 ± 11 | -6 | 373 ± 15 | 97 ± 23 | -24 | 394 ± 20 | 105 ± 18 | -16 | 382 ± 18 | 107 ± 12 | -14 | 382 ± 18 | –

Row | Compound | Mechanism of effect [1] | Selectivity [1] | Average arterial tension (normotensive rats; [2]) | Pulse (normotensive rats; [2]) | Average arterial tension (normotensive rats; 1 mg/kg i.d., time 1 min) | Decrease (of average arterial tension) (normotensive rats; 1 mg/kg i.d., time 1 min) | Pulse (normotensive rats; 1 mg/kg i.d., time 1 min) | Average arterial tension (normotensive rats; 1 mg/kg i.d., time 10 min) | Decrease (of average arterial tension) (normotensive rats; 1 mg/kg i.d., time 10 min) | Pulse (normotensive rats; 1 mg/kg i.d., time 10 min) | Average arterial tension (normotensive rats; 1 mg/kg i.d., time 30 min) | Decrease (of average arterial tension) (normotensive rats; 1 mg/kg i.d., time 30 min) | Pulse (normotensive rats; 1 mg/kg i.d., time 30 min) | Average arterial tension (normotensive rats; 1 mg/kg i.d., time 60 min) | Decrease (of average arterial tension) (normotensive rats; 1 mg/kg i.d., time 60 min) | Pulse (normotensive rats; 1 mg/kg i.d., time 60 min) | further results
6 | CC1(C)Oc2ccc(C#N)cc2C(N2CCCC2=O)C1O (stereo not drawn) [BRL 34915, reference compound] | Potassium canal activator | selective | 112 ± 9 | 368 ± 44 | 45 ± 2 | -67 | 368 ± 31 | 45 ± 2 | -67 | 382 ± 25 | 49 ± 4 | -63 | 377 ± 19 | 61 ± 11 | -51 | 373 ± 12 | –

Reference: US5703113A, “Benzopyran derivatives” (priority 1992, dated 1997)
